The subject of experiment [1] is Veillonella parvula (ATCC 17745). Description: Six species polymicrobial biofilm in constant-depth film fermenter, species composition: V. parvula. It counts as cell-based. The protocol: (§1) To model supragingival plaque six representative oral bacterial species, Streptococcus sanguinis (NCTC 7863), Streptococcus mutans Ingbritt, Actinomyces naeslundii (NCTC 10301), Veillonella parvula (ATCC 17745), Lactobacillus casei (NCDO 161) and Fusobacterium nucleatum (ATCC 10953) (Table 5) were cultured as a polymicrobial biofilm on a human enamel substratum in a constant-depth film fermenter (CDFF; Cardiff University, UK). The CDFF was housed in a 37° C. incubator under anaerobic conditions which were maintained by a constant flow of 5% CO2 in N2 at 1 L/h. The CDFF contained 15 removable polytetrafluoroethylene (PTFE) pans on a circular platform that was rotated at a constant speed of three rpm. The biofilms were grown on three enamel blocks (see below) in each PTFE pan using an artificial saliva medium (ASM, 2.5 g/L mucin type II (porcine, gastric, Sigma), 2.0 g/L bacteriological peptone (Oxoid), 2.0 g/L tryptone (Oxoid), 1.0 g/L yeast extract (Oxoid), 0.35 g/L NaCl, 0.2 g/L KCl, 0.2 mg/L vitamin K, 1 mg/L haemin and 0.1 g/L cysteine hydrochloride) at a constant flow rate of 30 mL/h. Prior to inoculation, the CDFF pan surfaces were conditioned for 24 h with ASM at a flow rate of 10 mL/h (McBain et al (2003) J Appl Microbiol. 94(4):655-66). In order to mimic in vivo bacterial growth conditions in the oral cavity with dietary sugar intake and to provide a high cariogenic challenge, a 1% (w/v) sucrose solution in ASM was pumped into the CDFF four times a day at four hourly intervals with a flow rate of 30 mL/h for 10 min.
Three treatments were applied to the polymicrobial biofilms: 290 ppm fluoride with 220 ppm fluoride as SnF2 and 70 ppm fluoride as NaF (referred to as SnF2), 2% CPP-ACP and 2% CPP-ACP-SnF2. […]
For each timepoint, DNA was extracted separately from 8-9 enamel blocks using PowerLyzer® PowerSoil® DNA Isolation Kits (MoBio Laboratories) following the manufacturers “Vacuum Protocol” with a Precellys® bead homogeniser (Bertin Technologies). Samples were quantified using a Qubit™ dsDNA HS assay kit (Life Technologies) before being stored at −80° C. […]

For experiment [2], the system named is enamel substratum of the polymicrobial biofilm caries model. Description: Enamel subsurface demineralization in the polymicrobial biofilm caries model (transverse microradiography). Details: species or system human. The note with it: for integrated mineral loss ΔZd / lesion depth LD: twice daily 10 min pulses, mean ± SD. On the procedure:
as §1
Three treatments were applied to the polymicrobial biofilms: 290 ppm fluoride with 220 ppm fluoride as SnF2 and 70 ppm fluoride as NaF (referred to as SnF2), 2% CPP-ACP and 2% CPP-ACP-SnF2. These treatments were compared with the control in which the test solution was replaced with ASM. Each treatment was applied using two 10 min pulses of the test solution in ASM with a flow rate of 30 mL/h. The first pulse started 30 min prior to the first sucrose pulse of the morning and the second started 3 h 30 min after the final sucrose pulse of the day.
On day 6, 12 and 19 after inoculation four pans were removed aseptically from the CDFF and replaced with blank sterile pans. Enamel blocks from the pans were removed for bacterial enumeration and transverse microradiography.
Three hundred and sixty extracted human third molars were obtained under University of Melbourne ethics approval (HREC #1237616) and sterilized by exposure to 4.1 kGy of gamma radiation. Enamel blocks were cut from the teeth with approximately 6×3×3 mm dimensions using a water-cooled diamond blade saw (Minitom, Struers) and polished using a RotoPol/RotoForce lapping instrument with 1200, 2400, 4000 grit lapping papers (Struers) and 3 and 1 μm diamond polishing pastes (Struers). The blocks were positioned in custom made CDFF pans at a depth of 100 μm and sealed in place with yellow sticky wax (Kemdent) and sterilized by exposure to 4.1 kGy of gamma radiation.
Transverse microradiography was carried out essentially as described previously [Shen et al 2011]. […] The lesion depth (μm) was determined as the distance to the point at which the mineral content reaches 95% of the sound enamel value. The integrated mineral loss (IML), represented as ΔZd, was calculated by trapezoidal integration as the area between the sound-enamel densitometric profile and that of the demineralized enamel densitometric profile in vol % min·μm.

Where “and” joins values, the source holds several entries; their conditions need not be identical. Equal values may be shown once. Marks after values point to notes of the source that are not given here.

Turning to “Casein phosphopeptide-amorphous calcium phosphate [CPP-ACP]”, the “V. parvula as a percentage of total bacteria in the biofilm” value in experiment [1] (19 days, mean ± standard deviation, n = 5-21) is reported as 6.71 ± 0.89^c %. In addition, in experiment [1] (twice daily treatment, day 19), the “change in abundance of V. parvula relative to the control (in words)” value is recorded as “remained relatively constant”. Besides, the “integrated mineral loss ΔZd” value is reported as 572.9 ± 97.80 vol % min · μm in experiment [2] (Day 6), 1075.3 ± 148.0^ad vol % min · μm in experiment [2] (Day 12) and 2105.4 ± 346.2^bd vol % min · μm in experiment [2] (Day 19). In addition, the results for the “lesion depth LD” value in experiment [2] (Day 6), in experiment [2] (Day 12) and in experiment [2] (Day 19) were 15.0 ± 2.1^a μm, 26.3 ± 4.4^ade μm and 52.3 ± 3.2^ad μm, respectively. The substance also came in with a rate of demineralization in experiment [2] (between day 6 and day 19) of 112.1 vol % min·μm/day. The “reduction in rate of demineralization relative to control” value in experiment [2] (between day 6 and day 19, twice daily exposure) was 50.2% and 50%.

For the origin of these results see patent US11717536B2, “Treatment for periodontitis” (THE UNIVERSITY OF MELBOURNE, priority 2017, dated 2023).
